Like-named read-outs stand apart in the source and are kept apart here.
Experiments:
[1] = tested on: Sprague-Dawley rats; conditions: cited from earlier work; for urine output: Sprague-Dawley rats; for sedation and hyperphagia: rat, in vivo
[2] = tested on: Pkd1 RC/RC mice; experiment: Chronic daily oral gavage of KOA in Pkd1 RC/RC mice (Example 1, Studies 1 and 2); type: in vivo; conditions: daily oral gavage 4 or 8 weeks; for fibrosis area in the kidney / serum creatinine and blood urea levels / cyst size and numbers: Pkd1 RC/RC mice; for cyst size and numbers: 5 mg/kg JT-09 or 100 µg/kg nalfurafine; for GFR: mice with PKD
Description: Pkd1 RC/RC mice were used as the polycystic kidney disease model. 12 weeks old mice were given a KOA treatment (JT-09 or nalfurafine) or a vehicle at a dose of 5 mg/kg for JT-09 or 100 µg/kg for nalfurafine daily for 4 or 8 weeks.
Group 1: Pkd1 RC/RC mice + treatment (JT09 or nalfurafine) oral gavage (5 mg/kg for JT-09 or 100 µg/kg for nalfurafine) daily. n=24
Group 2: Pkd1 RC/RC mice + vehicle oral gavage daily. n=24
At 16 weeks old, 12 mice from both groups 1 and 2 were selected. These mice were each placed in a metabolic cage to collect urine for three 24-hour periods (a total of 72 hours). Each mouse was placed in a separate metabolic cage, as opposed to all mice in a single metabolic cage. Daily water intake for each mouse is also recorded. Mice were then deep anesthetized, and blood was be taken from their artery. Mice were then sacrificed. Both kidneys were perfused with PBS and fixed in neutral buffered formalin. Kidneys were processed for paraffin embedding and sectioning. H&E and picrosirus stain were performed on each section. Cystic index including cysts size and number were evaluated by a pathologist. Fibrosis was evaluated by the pathologist as well; in addition, a fibrotic score was given. The serum creatinine and blood urea level in the blood was then measured.
At 20 weeks old, the other set of 12 mice in both groups was then sacrificed and the same experiment was be performed as described herein.
At 16 weeks old, 12 mice from each group were anesthetized. The right jugular vein was catheterized for inulin infusion, and the bladder was catheterized for urine collection. GFR was evaluated based on the excretion rate of FITC-sinistrin.
At 20 weeks old, the same GFR measure was be repeated on the other 12 mice from each group.

[3] = in vivo; cited from earlier work
[4] = tested on: Sprague Dawley rats; experiment: Stability of drug dissolved in drinking water, read out as urine output in rats; type: in vivo
Description: Day 1, the fresh made drug was given to rats. Day 4, the drug made on day 1 was given to the same rats. Veh, vehicle; Nal, nalfurafine. n=3 for each group.
Route of administration: Drug will be given orally in drinking water. We have performed a study to test the stability of the drug. […] We then left this water bottle at room temperature for three days, and we then gave this water to the same rats again. […] Therefore, the drug is stable for 3 days when it is dissolved in water at room temperature. We will make fresh nalfurafine in drinking water every 3 days in the chronic studies in both Aim 1 and Aim 2. We will give another group of mice the standard care of tolvaptan to serve as comparison of the treatment.

[5] = molecular target: kappa receptors (Homo sapiens, UniProt P41145); conditions: cited from earlier work
[6] = cited from earlier work
[7] = tested on: WT mice; experiment: Oral gavage of nalfurafine, urine output in wild type mice; type: in vivo
Description: The dose volume is 20 ml/kg.
Polycystic kidney disease (PKD) affects one person in every 400 to 1000 people in the U.S., which is associated with substantial mortality. […] There is no cure for PKD, and currently only one treatment is available to delay progression: tolvaptan, a vasopressin V2 receptor antagonist. This drug is expensive and indicated only in some patients who are at high risk for progression. The efficacy of tolvaptan proves that an active vasopressin pathway plays a critical role in this disease progression. However, the drug carries risk of severe hepatic toxicity, and patients treated with tolvaptan are suffering serious side effects, such as severe thirst and polyuria due to inhibition of V2 receptor in the distal nephrons. […] In addition to their inhibitory effect on vasopressin secretion and subsequent diuretic effect, KOAs can produce an anti-inflammatory micro-environment at the cellular level, which protects cardiac tissue from fibrosis.

[8] = tested on: Pkd1^RC/RC mice; experiment: Acute oral gavage of nalfurafine, urine output in PKD mice; type: in vivo
Description: Volume expansion, give mice saline at the dose of 20 ml/kg. (b) dose responsive curve of nalfurafine in Pkd1^RC/RC mice. Y axis, accumulative urine output of 5 hours after dosing. n=7-10 in each group.
ADPKD patients have an elevated level of vasopressin. Based on this observation, tolvaptan was discovered and later approved by its mechanism of action of blocking V2 receptors on the distal tubules. However, this also leads to the side effect of polyuria and severe thirst. […] Therefore, the long-term effects by nalfurafine on urine output can be limited unlike tolvaptan.
Therefore, we will give PKD mice nalfurafine daily at the maximum responsive dose 240 ug/kg/day for chronic studies in both Aim 1 and Aim 2 to obtain the greatest benefits.

[9] = tested on: affected skin; conditions: atopic dermatitis and pruritus; cited from earlier work
[10] = tested on: patients; conditions: cited from earlier work
[11] = tested on: patients; conditions: patients treated with tolvaptan; cited from earlier work
[12] = cited from earlier work; remark: listed apart in the source
[13] = tested on: patients; conditions: human trials; cited from earlier work
[14] = tested on: conscious rats; conditions: cited from earlier work
[15] = i.c.v. or i.v. infusion, conscious rats

Sequence of kappa receptors (P41145 whole entry): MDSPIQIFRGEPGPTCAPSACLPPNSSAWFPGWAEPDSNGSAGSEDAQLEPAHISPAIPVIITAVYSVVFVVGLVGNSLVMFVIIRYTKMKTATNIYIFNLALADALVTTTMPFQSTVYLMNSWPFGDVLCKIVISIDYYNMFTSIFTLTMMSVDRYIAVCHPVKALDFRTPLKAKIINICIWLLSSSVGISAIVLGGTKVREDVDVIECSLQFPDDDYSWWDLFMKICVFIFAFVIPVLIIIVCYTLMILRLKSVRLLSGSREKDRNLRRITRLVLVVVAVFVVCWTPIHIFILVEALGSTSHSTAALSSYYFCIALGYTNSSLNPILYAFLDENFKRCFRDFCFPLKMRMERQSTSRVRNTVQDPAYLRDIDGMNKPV

Molecule: CC(C)C1CCC(N2CCC(N3C(=O)C(=O)c4ccccc43)CC2)CC1 (centres unmarked) [AT-090]
- urine output [1]: increase urine output
- sedation and hyperphagia [1]: sedation and hyperphagia

Molecule: CC(C)C1CCC(N2CCC(N3C(=O)/C(=N\O)c4ccccc43)CC2)CC1 (centres unmarked) [AT-127]
- urine output [1]: increase urine output
- sedation and hyperphagia [1]: sedation and hyperphagia

Molecule: CC(C)C1CCC(N2CCC(n3c(CO)c(CO)c4ccccc43)CC2)CC1 (centres unmarked) [AT-390]
- urine output [1]: increase urine output

Molecule: CNC(=O)CC1C(=O)N(C2CCN(C3CCC(C(C)C)CC3)CC2)c2ccccc21 (centres unmarked) [AT-403]
- urine output [1]: increase urine output
- sedation and hyperphagia [1]: sedation and hyperphagia

Molecule: CCCC[C@@H](NC(=O)[C@@H](Cc1ccccc1)NC(=O)[C@H](N)Cc1ccccc1)C(=O)N[C@H](CCCCN(C)C)C(=O)NCc1ccncc1 [JT09]
- fibrosis area in the kidney [2]: reduce fibrosis area in the kidney
- serum creatinine and blood urea levels [2]: decrease serum creatinine and blood urea levels
- cyst size and numbers [2]: decrease cyst size and numbers
- GFR [2]: improve GFR
- serum creatinine levels [3]: reduces serum creatinine levels
- urine output [3]: increases urine output

Molecule: CN(C(=O)/C=C/c1ccoc1)[C@@H]1CC[C@@]2(O)[C@H]3Cc4ccc(O)c5c4[C@@]2(CCN3CC2CC2)[C@H]1O5 [nalfurafine]
- diuresis after fresh drug dissolved in water ([4]; rats, first day, 30 ug/kg single dose): produced diuresis
- magnitude of increase in urine output, day 4 versus day 1 ([4]; same rats, drug solution kept at room temperature for three days): the same on day 4 as it was on day 1
- stability when dissolved in water at room temperature ([4]; water, room temperature): 3 days
- selectivity for kappa receptors [5]: highly selective for kappa receptors
- half life ([6]; healthy volunteers): 8 h
- half life ([6]; hemodialysis patients): 10 to 15 h
- behavioral or adverse effects ([7]; mouse, in vivo): does not produce any apparent behavioral or adverse effects
- urine output ([7]; oral gavage, wild type mice): marked increase in urine output
- dose dependence of the increase in urine output ([8]; Pkd1^RC/RC mice, accumulative urine output of 5 hours after dosing): dose dependent
- dose with the greatest increase in 5-hour urine output ([8]; Pkd1^RC/RC mice, doses of 100, 130, 180, 240 and 320 ug/kg): 0.24 mg/kg
- highest effective dose in acute study ([8]; acute study): 0.24 mg/kg
- urine output compared with vehicle treatment ([8]; oral administration, mice with PKD, within the 3 hours after dosing (FIG. 24a: 240 ug/kg)): significant increase in urine output
- fibrosis area in the kidney [2]: reduce fibrosis area in the kidney
- serum creatinine and blood urea levels [2]: decrease serum creatinine and blood urea levels
- cyst size and numbers [2]: decrease cyst size and numbers
- GFR [2]: improve GFR
- infiltration of CD4+ and CD8+ T cells [9]: reduced infiltration of CD4+ T cells and CD8+ T cells in the affected skin
- polyuria as a side effect ([10]; clinical trials of nalfurafine): none of the clinical trials of nalfurafine have reported polyuria
- CNS-mediated side effects of traditional opioids (nausea/vomiting, sedation, respiratory depression, abuse potential, addiction, euphoria) ([10]; human, in vivo): does not produce the CNS-mediated side effects
- extreme thirst and polyuria ([10]; one year post-marketing surveillance study): does not cause extreme thirst nor polyuria
- insomnia (worst side effect), share of patients ([10]; post marketing analysis of 3,762 patients): approximately 3%

Molecule: Cc1ccccc1C(=O)Nc1ccc(C(=O)N2CCCC(O)c3cc(Cl)ccc32)c(C)c1 (centres unmarked) [tolvaptan]
- undesirable side effects [11]: severe thirst, polyuria and hepatic toxicity
- water solubility [12]: poor water solubility

Molecule: Ac—Arg—Tyr—Tyr—Arg—Trp—Lys—Lys—Lys—Lys—Lys—Lys—Lys—NH2 (Ac-RYYRWKKKKKKK-NH2) [ZP120, peptide NOP receptor partial agonist]
- blood pressure [13]: efficacious in lowering blood pressure

Molecule: nociceptin (FGGFTGARKSARKLANQ; Nociceptin; UniProt Q13519 130-146, looked up) [17 amino acid peptide, classical ligand of the nociceptin opioid peptide receptor]
- circulating levels of vasopressin ([14]; administered centrally): reduces circulating levels of vasopressin
- blood pressure, heart rate and peripheral sympathetic nerve activity ([14]; centrally (i.c.v.) or at high doses peripherally (i.v. bolus or infusion)): decreases blood pressure, heart rate and peripheral sympathetic nerve activity
- urinary sodium excretion [14, 15]: decrease in urinary sodium excretion
- urine flow rate [14, 15]: marked increase in urine flow rate

Source: patent publication US20230181569A1, “COMPOSITIONS AND METHODS TO TREAT POLYCYSTIC KIDNEY DISEASE” (Board of Supervisors of Louisiana State University and …, priority 2020, published 2023)
